Here are results for 11 compounds from patent US10005733B2, “N-(4-hydroxy-4-methyl-cyclohexyl)-4-phenyl-benzenesulfonamide and N-(4-hydroxy-4-methyl-cyclohexyl)-4-(2-pyridyl)-benzenesulfonamide compounds and their therapeutic use” (PIMCO 2664 LIMITED, priority 2014, dated 2018).

SMILES strings stand for the structures.

In experiment [1] the target is T1, CYP2C19 (Homo sapiens, UniProt P33261).
T1 construct: purchased Cypex Ltd, Dundee, Scotland UK
The experiment is described as follows: Human Cytochrome P450 Inhibition Assay (Bactosomes), CYP2C19. In kind it is in vitro ADME. The note with it: recombinant Bactosomes, probe substrate, 10 minutes at 37° C. How it is done: (§1) The ability of test compounds to inhibit five of the most relevant cytochrome P450 enzymes was measured by determination of the activity of cytochrome P450 enzymes in recombinant cytochrome preparations, called Bactosomes (Cypex Ltd, Dundee, Scotland UK DD2 1NH), in the presence of a specific probe substrate. Bactosomes are a highly efficient and cost-effective source of recombinant CYP450s which have a higher specific activity of enzyme compared to other sources, such as liver microsomes. […] The following CYP450 isoforms were assayed: CYP1A2, CYP2C9, CYP2C19, CYP2D6 and CYP3A4. The study of CYP450 inhibition potential in Bactosomes is accepted as a valuable model permitting rapid prediction of potential drug-drug interactions in vivo (see, e.g., Weaver et al., 2003).
(§2) Bactosomes were obtained from a commercial source (Cypex, Scotland, UK). Test compounds were incubated with Bactosomes at 6 concentrations. Samples were incubated for 10 minutes, after which the reaction was stopped and the samples analysed by LC-MS/MS Multiple Reaction Monitoring (MRM) for the presence/amount of substrate probe.
(§3) CYP450 enzymes (final protein 75 pmol/mL for CYP1A2; 12.5 pmol/mL for CYP2C19; and 25 pmol/mL for CYP2C9, 2D6 and 3A4), 0.1 M phosphate buffer pH 7.4, probe and test compound (final concentration 50, 15.8, 5, 1.58, 0.5 and 0.158 μM; diluted from 10 mM stock solution to give a final DMSO concentration of 1%) were pre-incubated at 37° C. for 5 minutes. The reaction was initiated by the addition of 20 μL of 10 mM NADPH in phosphate buffer. The final incubation volume was 200 μL. The following control inhibitors were used for each CYP450 inhibition assay: CYP1A2: α-naphthoflavone; CYP2C9: sulfaphenazole; CYP2C19: tranylcypromine; CYP2D6: quinidine; CYP3A4: ketoconazole.
(§4) Each compound was incubated for 10 minutes at 37° C. The reactions were stopped by the addition of methanol (final composition 1:1, aqueous: methanol). The incubation plates were shaken, chilled at […] for 2 hours, and centrifuged at 3500 rpm for 15 minutes at 4° C. to precipitate the protein.
(§5) IC50 values were determined by linear transformation within Microsoft Excel.

Experiment [2] addresses T2, CYP1A2 (Homo sapiens, UniProt P05177).
T2 construct: purchased Cypex Ltd, Dundee, Scotland UK
T2 sequence (P05177 1-516): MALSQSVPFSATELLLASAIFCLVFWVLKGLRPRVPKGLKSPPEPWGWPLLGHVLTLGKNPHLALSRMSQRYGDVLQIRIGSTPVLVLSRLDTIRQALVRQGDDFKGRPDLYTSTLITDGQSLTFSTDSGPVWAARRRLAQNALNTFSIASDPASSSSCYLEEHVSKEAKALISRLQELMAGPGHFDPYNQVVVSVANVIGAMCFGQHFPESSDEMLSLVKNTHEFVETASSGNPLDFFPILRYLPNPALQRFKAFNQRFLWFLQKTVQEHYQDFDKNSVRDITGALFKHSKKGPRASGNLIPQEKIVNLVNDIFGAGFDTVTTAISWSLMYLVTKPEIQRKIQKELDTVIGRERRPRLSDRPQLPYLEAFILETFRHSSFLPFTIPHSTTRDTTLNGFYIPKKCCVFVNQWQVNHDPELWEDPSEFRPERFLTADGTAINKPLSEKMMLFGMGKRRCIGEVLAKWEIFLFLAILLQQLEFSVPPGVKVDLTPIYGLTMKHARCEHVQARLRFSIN
Nature of the experiment: Human Cytochrome P450 Inhibition Assay (Bactosomes), CYP1A2. In kind it is in vitro ADME. The settings on record: recombinant Bactosomes, probe substrate, 10 minutes at 37° C. How it is done:
as §1, §2, §3, §4, §5

Experiment [3] concerns the target T3, CYP2D6 (Homo sapiens, UniProt P10635).
T3 construct: purchased Cypex Ltd, Dundee, Scotland UK
The experiment is described as follows: Human Cytochrome P450 Inhibition Assay (Bactosomes), CYP2D6. In kind it is in vitro ADME. The settings on record: recombinant Bactosomes, probe substrate, 10 minutes at 37° C. How it is done: as §1, §2, §3, §4, §5

The target in experiment [4] is T4, CYP3A4 (Homo sapiens, UniProt P08684).
T4 construct: purchased Cypex Ltd, Dundee, Scotland UK
T4 sequence (P08684 whole entry): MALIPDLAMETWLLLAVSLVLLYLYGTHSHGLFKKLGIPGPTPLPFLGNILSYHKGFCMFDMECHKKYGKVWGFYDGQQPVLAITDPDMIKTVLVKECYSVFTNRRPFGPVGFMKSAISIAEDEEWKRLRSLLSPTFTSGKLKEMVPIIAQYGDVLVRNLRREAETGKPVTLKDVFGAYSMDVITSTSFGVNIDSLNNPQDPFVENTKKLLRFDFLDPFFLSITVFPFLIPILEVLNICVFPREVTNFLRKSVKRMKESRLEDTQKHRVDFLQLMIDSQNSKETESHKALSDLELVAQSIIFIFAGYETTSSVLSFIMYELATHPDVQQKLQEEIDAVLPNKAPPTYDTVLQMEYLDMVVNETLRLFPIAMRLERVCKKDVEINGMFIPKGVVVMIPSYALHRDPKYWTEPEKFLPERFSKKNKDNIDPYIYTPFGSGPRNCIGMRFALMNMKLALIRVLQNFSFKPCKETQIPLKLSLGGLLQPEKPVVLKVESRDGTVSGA
Nature of the experiment: Human Cytochrome P450 Inhibition Assay (Bactosomes), CYP3A4. The note with it: recombinant Bactosomes, probe substrate, 10 minutes at 37° C. In kind it is in vitro ADME. As for the experimental part:
as §1, §2, §3, §4, §5

The subject of experiment [5] is IL-6 release from Thp1 macrophages. Nature of the experiment: Thp1 Macrophage IL-6 Release Assay (LPS-stimulated). Format: cell-based. The note with it: Homo sapiens, THP-1, 18 h, 100 ng/mL LPS. An excerpt: Anti-inflammatory effects were further characterised by assessing the production of interleukin-6 (IL-6) by human Thp-1 derived macrophages stimulated with a pro-inflammatory stimulus bacterial lipopolysaccharide (LPS). LPS acts with a cell-surface receptor, Toll-like receptor-4 to activate the NFκB and IRF signalling pathways to produce IL-6. The reduction of IL-6 in this stimulated assay is indicative of anti-inflammatory effects with utility in the treatment of conditions in which IL-6 production is aberrant. In vitro potency of test compounds in human cells was determined by incubation with Thp1 macrophages and subsequent stimulation with an inflammatory stimulus (bacterial lipopolysaccharide (LPS)) followed by measurement of cellular interleukin-6 (IL-6) release. […] The following day, the cells were stimulated with phorbol myristic acid (PMA) at a final concentration of 200 nM to induce differentiation and maintained for 3 days. Test compounds were prepared as […] solutions in DMSO and then serially diluted in DMSO prior to dilution in culture medium. The diluted compounds were added to the cultures 1 hour prior to stimulation with 100 ng/mL LPS. Compounds were tested in triplicate in a 9 point concentration response curve at concentrations of 30, 10, 3, 1, 0.3, 0.1, 0.03, 0.01 and 0.001 μM Following an 18 hour incubation at 37° C./5% CO2, the cell culture medium was collected and assayed for human IL-6 levels using the human IL-6 duo-set ELISA kit (R&D Systems). The average results for each test compound (n=3) were expressed as a percent (%) of the average control value. The average values across the concentrations tested were then plotted and the IC50 for the inhibition of IL-6 was calculated by fitting the data to a 4-parameter IC50 equation using GraphPad Prism software for Windows (Graph Pad Software, San Diego Calif. USA) or Grafit version 5 (Erithacus Software). Each experiment was repeated twice and the data are presented as the mean IC50 from both experiments.

Setting [6] is: footnote (2): Thp1 cells plated at 1.7 × 10^5 cells/well, GraphPad Prism.
Where [7] appears, read: footnote (1): Thp1 cells plated at 3 × 10^5 cells/well, Grafit.

T1 sequence (P33261 whole entry): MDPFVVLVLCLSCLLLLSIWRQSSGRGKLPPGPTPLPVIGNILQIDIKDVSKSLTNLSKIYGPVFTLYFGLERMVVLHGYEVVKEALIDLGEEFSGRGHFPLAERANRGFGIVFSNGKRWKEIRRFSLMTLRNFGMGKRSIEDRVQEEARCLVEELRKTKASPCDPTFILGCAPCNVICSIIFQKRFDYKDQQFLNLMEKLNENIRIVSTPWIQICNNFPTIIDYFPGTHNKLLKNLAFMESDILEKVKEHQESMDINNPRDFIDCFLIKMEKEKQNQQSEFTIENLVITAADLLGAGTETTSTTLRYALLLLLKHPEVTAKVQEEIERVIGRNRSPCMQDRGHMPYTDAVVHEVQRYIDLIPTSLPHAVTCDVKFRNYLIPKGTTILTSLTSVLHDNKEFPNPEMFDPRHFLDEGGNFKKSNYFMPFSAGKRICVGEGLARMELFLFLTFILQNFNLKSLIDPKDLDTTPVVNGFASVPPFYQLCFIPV
T3 sequence (P10635 whole entry): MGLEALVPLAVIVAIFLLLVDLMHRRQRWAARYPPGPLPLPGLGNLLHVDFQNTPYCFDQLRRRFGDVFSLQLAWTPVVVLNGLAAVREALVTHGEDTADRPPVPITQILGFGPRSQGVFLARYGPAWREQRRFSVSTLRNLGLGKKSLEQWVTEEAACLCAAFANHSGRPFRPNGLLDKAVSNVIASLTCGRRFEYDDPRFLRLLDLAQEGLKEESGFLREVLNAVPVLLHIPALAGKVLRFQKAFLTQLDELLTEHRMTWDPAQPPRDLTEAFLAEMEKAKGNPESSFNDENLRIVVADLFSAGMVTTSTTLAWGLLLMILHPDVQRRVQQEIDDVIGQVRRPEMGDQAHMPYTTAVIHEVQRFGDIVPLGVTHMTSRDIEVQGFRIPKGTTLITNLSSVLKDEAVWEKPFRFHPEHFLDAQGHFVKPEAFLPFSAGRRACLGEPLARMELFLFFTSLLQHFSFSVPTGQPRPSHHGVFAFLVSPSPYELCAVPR

One may read the IC50 as the concentration needed to halve the response being measured. With `Cc1cc(S(=O)(=O)N[C@H]2CC[C@H](O)CC2)ccc1-c1ccc(F)cc1F` [ABD735, reference compound], the IC50 in experiment [1], in experiment [2], in experiment [3] and in experiment [4] was over 25 µM in each case.

On to `C[C@]1(O)CC[C@@H](NS(=O)(=O)c2ccc(-c3cc(F)c(F)cc3F)cc2)CC1` [HMC-C-10-B, 2′,4′,5′-Trifluoro-N-((1s,4s)-4-hydroxy-4-methylcyclohexyl)-[1,1′-biphenyl]-4-sulfonamide], for which the IC50 was 8.5 µM in experiment [1]; over 16 µM in experiment [2]; over 16 µM in experiment [3]; 0.55 µM in experiment [5] (setting [6]); 9.2 µM in experiment [4].

With `C[C@]1(O)CC[C@H](NS(=O)(=O)c2ccc(-c3ccc(Cl)cc3C#N)c(Cl)c2)CC1` [HMC-C-11-A, 2,4′-Dichloro-2′-cyano-N-((1r,4r)-4-hydroxy-4-methylcyclohexyl)-[1,1′-biphenyl]-4-sulfonamide], the concentration for half-maximal inhibition (IC50) in experiment [1] came to 5.1 µM; in experiment [2], 11 µM; in experiment [3], 9.3 µM; in experiment [5] (setting [6]) it was 0.26 µM; in experiment [4], 12 µM.

`O=S(=O)(N[C@H]1CC[C@H](O)CC1)c1ccc(-c2ccc(F)cc2F)cc1` [ABD599, reference compound]: the IC50 in experiment [1] is over 25 µM; in experiment [2] it was over 25 µM; in experiment [3], 20.7 µM; in experiment [5] (setting [7]), 0.07 µM; in experiment [5] (setting [6]), 0.19 µM; in experiment [4], over 25 µM.

As to `C[C@]1(O)CC[C@H](NS(=O)(=O)c2ccc(-c3ccc(C#N)cc3)c(F)c2)CC1` [HMC-C-07-A, 4′-Cyano-2-fluoro-N-((1r,4r)-4-hydroxy-4-methylcyclohexyl)-[1,1′-biphenyl]-4-sulfonamide], the half-maximal inhibitory concentration (IC50) in experiment [1], in experiment [2], in experiment [3] and in experiment [4] was over 50 µM in each case.

As to `C[C@]1(O)CC[C@H](NS(=O)(=O)c2ccc(-c3ccc(Cl)cc3C#N)c(F)c2)CC1` [HMC-C-08-A, 4′-Chloro-2′-cyano-2-fluoro-N-((1r,4r)-4-hydroxy-4-methylcyclohexyl)-[1,1′-biphenyl]-4-sulfonamide], the IC50 came out at 30 µM in experiment [1]; 27 µM in experiment [2]; 19 µM in experiment [3]; 0.16 µM in experiment [5] (setting [6]); 29 µM in experiment [4].

On to `C[C@]1(O)CC[C@H](NS(=O)(=O)c2ccc(-c3ncc(Cl)cc3C#N)cc2)CC1` [HMC-N-05-A, 4-(5-Chloro-3-cyanopyridin-2-yl)-N-((1r,4r)-4-hydroxy-4-methylcyclohexyl)benzenesulfonamide], for which the IC50 in experiment [1] is over 50 µM; in experiment [2], 36 µM; in experiment [3] it was over 50 µM; in experiment [5] (setting [6]), 0.3 µM; in experiment [4], over 50 µM.

As for `C[C@]1(O)CC[C@H](NS(=O)(=O)c2ccc(-c3ccc(F)cc3F)cc2)CC1` [ABD900], the IC50 in experiment [5] (setting [7]) stood at 0.09 µM; in experiment [5] (setting [6]), 0.11 µM.

Regarding `C[C@]1(O)CC[C@H](NS(=O)(=O)c2ccc(-c3ccc(C#N)cc3Cl)cc2)CC1` [HMC-C-09-A, 2′-Chloro-4′-cyano-N-((1r,4r)-4-hydroxy-4-methylcyclohexyl)-[1,1′-biphenyl]-4-sulfonamide], the IC50 in experiment [1] was over 50 µM; in experiment [2], 23 µM; in experiment [3], over 50 µM; in experiment [5] (setting [6]) it was 0.17 µM; in experiment [4], 33 µM.

On to `C[C@]1(O)CC[C@@H](NS(=O)(=O)c2ccc(-c3ccc(C#N)cc3)c(F)c2)CC1` [HMC-C-07-B, 4′-Cyano-2-fluoro-N-((1s,4s)-4-hydroxy-4-methylcyclohexyl)-[1,1′-biphenyl]-4-sulfonamide], for which the IC50 in experiment [1] was over 50 µM; in experiment [2], over 50 µM; in experiment [3], over 50 µM; in experiment [5] (setting [6]), 0.018 µM; in experiment [4] it was over 50 µM.

For the compound `C[C@]1(O)CC[C@@H](NS(=O)(=O)c2ccc(-c3ccc(F)cc3F)cc2)CC1` [ABD899, reference compound], the IC50 in experiment [1] is 7.3 µM; in experiment [2], over 25 µM; in experiment [3] it was 45.3 µM; in experiment [5] (setting [7]), 0.03 µM; in experiment [5] (setting [6]), 0.04 µM; in experiment [4], 21.6 µM.
